Experimental data from article PMC3923778 (PLoS Currents, 2014).
Entries after “also recorded” stand apart in the source; their conditions may differ.

Legend:
R6/2 mice [1] = experiment: Grip Strength; assay type: in vivo, mouse; parameters: key to Grip Strength: direction of significant change vs Vehicle-treated R6/2 mice: ▲: significant enhancement compared to Vehicle-treated R6/2 mice (One-way ANOVA, Dunnett’s post-hoc); ▼: significant impairment compared to Vehicle-treated R6/2 mice (One-way ANOVA, Dunnett’s post-hoc)
Description: (§1) Motor function testing including open field and rear climbing tests were commenced at 4 weeks of age and continued at weeks 6, 8 and 12, for grip strength test at age weeks 4 and 12 and for rotarod at age weeks 4, 6 and 8. Compound treatment was started at 4 weeks of age after the baseline behavioral tests.
Grip strength measurement was performed at age weeks 4 and 12. The mice were tested on Monday afternoons. Mice were taken to the experimental room and, one at a time, were placed on the grip-strength apparatus (San Diego Instruments, San Diego, USA) in such a way that the animal grabs a small mesh grip with its forepaws. The entire apparatus is placed on a table top for testing. Animals are lowered to the platform and then slowly pulled away from the handle by the tail until the animal releases the handle. The equipment automatically measures the strength of the animal’s grip in grams. Five scores were recorded per animal in consecutive sequence. Mice were returned to their home cage after testing.
(§2) All values are presented as mean ± Standard Error of Mean (SEM), and differences are considered to be statistically significant at the p < 0.05 level. Statistical analysis was performed using StatsDirect statistical software. Differences between group means were analyzed by 1-way-ANOVA followed by Dunnett’s test (comparison to the control (=vehicle treated TG mice) group). The acquisition of the Cued two-choice swim test was analyzed using Fisher’s exact test.

R6/2 mice [2] = experiment: Open Field Test; assay type: in vivo, mouse; parameters: key to Open Field Total Distance: direction of significant change vs Vehicle-treated R6/2 mice / Open Field Center Distance: direction of significant change vs Vehicle-treated R6/2 mice: ▲: significant enhancement compared to Vehicle-treated R6/2 mice (One-way ANOVA, Dunnett’s post-hoc); ▼: significant impairment compared to Vehicle-treated R6/2 mice (One-way ANOVA, Dunnett’s post-hoc)
Description: as §1
Open field test was performed at age weeks 4, 6, 8 and 12. The mice were tested on Mondays at approximately 10-30 lux of red light. The mice were brought to the experimental room for at least 1 h acclimation to the experimental room conditions prior to testing. Activity chambers (Med Associates Inc., St Albans, VT; 27 x 27 x 20.3 cm) are equipped with IR beams. Mice were placed in the center of the chamber and their behavior was recorded for 30 min in 5-minute bins. Quantitative analysis was performed on the following five dependent measures: total locomotion, locomotion in the center of the open field, rearing rate in the center, total rearing frequency and velocity.
as §2

PDE2A3 = target: T1, PDE2A3 (Homo sapiens, UniProt O00408); experiment: IMAP PDE activity assay (Scottish Biomedical); assay type: biochemical; details: recombinant PDE2A3
T1 construct: Scottish Biomedical (contract laboratory)
T1 sequence (O00408 whole entry, species assumed): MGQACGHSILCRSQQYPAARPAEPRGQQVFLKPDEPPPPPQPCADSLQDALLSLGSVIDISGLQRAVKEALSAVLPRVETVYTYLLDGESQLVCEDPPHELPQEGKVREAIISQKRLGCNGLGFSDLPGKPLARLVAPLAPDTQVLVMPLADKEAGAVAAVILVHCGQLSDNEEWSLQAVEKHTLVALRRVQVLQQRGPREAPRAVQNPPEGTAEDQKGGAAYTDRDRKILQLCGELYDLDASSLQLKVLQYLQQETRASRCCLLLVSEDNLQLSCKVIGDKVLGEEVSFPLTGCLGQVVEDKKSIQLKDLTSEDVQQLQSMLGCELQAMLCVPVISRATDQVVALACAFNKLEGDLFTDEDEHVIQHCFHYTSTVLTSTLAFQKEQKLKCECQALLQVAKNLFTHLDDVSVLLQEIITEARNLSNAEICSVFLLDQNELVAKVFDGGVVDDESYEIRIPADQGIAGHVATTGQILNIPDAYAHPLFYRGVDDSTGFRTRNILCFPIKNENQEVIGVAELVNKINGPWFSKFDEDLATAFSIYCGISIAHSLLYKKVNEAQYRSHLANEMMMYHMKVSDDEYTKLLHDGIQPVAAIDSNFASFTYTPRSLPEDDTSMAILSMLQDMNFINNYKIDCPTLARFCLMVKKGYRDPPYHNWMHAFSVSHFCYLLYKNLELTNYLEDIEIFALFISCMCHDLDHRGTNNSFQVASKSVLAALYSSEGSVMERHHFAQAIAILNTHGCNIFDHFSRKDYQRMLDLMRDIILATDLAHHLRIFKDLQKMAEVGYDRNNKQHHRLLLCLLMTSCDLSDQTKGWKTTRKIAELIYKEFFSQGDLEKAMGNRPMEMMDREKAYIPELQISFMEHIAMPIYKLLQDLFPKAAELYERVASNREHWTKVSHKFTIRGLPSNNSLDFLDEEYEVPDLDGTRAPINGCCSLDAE
Description: (§3) Studies were conducted at Scottish Biomedical (Scotland, UK)
(§4) Activity against recombinant PDEs (Table 1) was evaluated using the IMAP technology, which is based on high affinity binding of phosphate by immobilized metal coordination complexes on nanoparticles. The binding reagent complexes with phosphate groups on nucleotide monophosphate generated from cyclic nucleotides (cAMP/cGMP) through PDE activity. With fluorescence polarization detection, binding causes a change in the rate of the molecular motion of the phosphate bearing molecule, and results in an increase in the fluorescence polarization value observed for the fluorescent label attached to the substrate.

PDE9A2 = PDE9A2 (Homo sapiens, UniProt O76083); experiment: IMAP PDE activity assay (Scottish Biomedical); assay type: biochemical; details: * Extrapolated value
Description: as §3, §4

PDE3 Cat = experiment: IMAP PDE activity assay (Scottish Biomedical); assay type: biochemical; details: * Extrapolated value
Description: as §3, §4

PDE11A1 (cAMP) = PDE11A1 (cAMP) (Homo sapiens, UniProt Q9HCR9); experiment: IMAP PDE activity assay (Scottish Biomedical); assay type: biochemical; details: * Extrapolated value
Chain of PDE11A1 (cAMP) (Q9HCR9 whole entry): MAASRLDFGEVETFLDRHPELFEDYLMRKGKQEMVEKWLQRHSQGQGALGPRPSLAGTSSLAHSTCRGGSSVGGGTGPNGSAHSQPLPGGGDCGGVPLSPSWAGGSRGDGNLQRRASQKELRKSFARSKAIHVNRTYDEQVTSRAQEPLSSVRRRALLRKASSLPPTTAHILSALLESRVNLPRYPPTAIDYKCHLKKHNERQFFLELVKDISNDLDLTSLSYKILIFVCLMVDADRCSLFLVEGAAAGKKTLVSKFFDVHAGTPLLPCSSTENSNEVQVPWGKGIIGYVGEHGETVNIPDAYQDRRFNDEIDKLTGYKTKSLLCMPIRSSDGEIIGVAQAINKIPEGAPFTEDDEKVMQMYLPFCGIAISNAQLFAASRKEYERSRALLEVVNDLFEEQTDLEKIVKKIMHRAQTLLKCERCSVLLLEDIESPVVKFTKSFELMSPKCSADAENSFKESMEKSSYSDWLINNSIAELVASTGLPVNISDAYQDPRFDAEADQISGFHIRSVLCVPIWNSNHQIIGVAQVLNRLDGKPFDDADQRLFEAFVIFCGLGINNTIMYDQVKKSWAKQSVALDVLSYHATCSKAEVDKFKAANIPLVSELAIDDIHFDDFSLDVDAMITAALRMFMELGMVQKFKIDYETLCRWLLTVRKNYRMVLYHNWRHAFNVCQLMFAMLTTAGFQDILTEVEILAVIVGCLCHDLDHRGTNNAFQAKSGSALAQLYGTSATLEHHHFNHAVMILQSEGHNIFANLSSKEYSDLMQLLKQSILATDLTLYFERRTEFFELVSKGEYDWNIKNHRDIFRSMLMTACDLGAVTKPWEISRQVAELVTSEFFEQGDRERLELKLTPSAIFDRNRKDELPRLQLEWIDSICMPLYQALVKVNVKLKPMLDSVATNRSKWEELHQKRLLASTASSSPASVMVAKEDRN
Description: as §3, §4

PDE4 Cat = experiment: IMAP PDE activity assay (Scottish Biomedical); assay type: biochemical
Description: as §3, §4

PDE6AB = target: T2, PDE6AB (Homo sapiens, UniProt P16499+P35913); experiment: IMAP PDE activity assay (Scottish Biomedical); assay type: biochemical; details: NI, no inhibition noted at concentrations tested (up to 10 µM at Cerep and up to 100 µM at Scottish Biomedical)
T2 construct: Scottish Biomedical (contract laboratory)
T2 sequence (P16499 whole entry): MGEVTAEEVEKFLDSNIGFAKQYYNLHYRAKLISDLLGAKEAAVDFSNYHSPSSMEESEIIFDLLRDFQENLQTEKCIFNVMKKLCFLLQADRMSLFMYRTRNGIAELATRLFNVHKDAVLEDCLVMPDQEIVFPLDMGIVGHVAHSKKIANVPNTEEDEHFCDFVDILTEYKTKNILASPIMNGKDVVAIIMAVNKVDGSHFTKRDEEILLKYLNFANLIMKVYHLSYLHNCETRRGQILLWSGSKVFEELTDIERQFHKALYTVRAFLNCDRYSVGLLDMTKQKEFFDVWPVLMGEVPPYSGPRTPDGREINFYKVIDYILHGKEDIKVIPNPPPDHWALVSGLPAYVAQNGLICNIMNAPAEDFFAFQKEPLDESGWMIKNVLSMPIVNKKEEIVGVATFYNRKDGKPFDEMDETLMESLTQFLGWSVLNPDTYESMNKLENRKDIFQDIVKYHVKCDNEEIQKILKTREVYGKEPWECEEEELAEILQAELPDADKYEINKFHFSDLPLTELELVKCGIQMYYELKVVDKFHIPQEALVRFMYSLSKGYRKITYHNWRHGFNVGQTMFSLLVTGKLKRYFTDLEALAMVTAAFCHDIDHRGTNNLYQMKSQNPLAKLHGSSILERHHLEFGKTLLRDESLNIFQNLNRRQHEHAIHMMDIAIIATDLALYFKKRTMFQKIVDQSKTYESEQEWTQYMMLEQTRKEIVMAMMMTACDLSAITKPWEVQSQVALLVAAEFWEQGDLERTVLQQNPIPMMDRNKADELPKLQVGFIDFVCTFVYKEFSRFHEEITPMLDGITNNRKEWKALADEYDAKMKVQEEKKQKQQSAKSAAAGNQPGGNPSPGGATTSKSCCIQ
T2 sequence (P35913 whole entry): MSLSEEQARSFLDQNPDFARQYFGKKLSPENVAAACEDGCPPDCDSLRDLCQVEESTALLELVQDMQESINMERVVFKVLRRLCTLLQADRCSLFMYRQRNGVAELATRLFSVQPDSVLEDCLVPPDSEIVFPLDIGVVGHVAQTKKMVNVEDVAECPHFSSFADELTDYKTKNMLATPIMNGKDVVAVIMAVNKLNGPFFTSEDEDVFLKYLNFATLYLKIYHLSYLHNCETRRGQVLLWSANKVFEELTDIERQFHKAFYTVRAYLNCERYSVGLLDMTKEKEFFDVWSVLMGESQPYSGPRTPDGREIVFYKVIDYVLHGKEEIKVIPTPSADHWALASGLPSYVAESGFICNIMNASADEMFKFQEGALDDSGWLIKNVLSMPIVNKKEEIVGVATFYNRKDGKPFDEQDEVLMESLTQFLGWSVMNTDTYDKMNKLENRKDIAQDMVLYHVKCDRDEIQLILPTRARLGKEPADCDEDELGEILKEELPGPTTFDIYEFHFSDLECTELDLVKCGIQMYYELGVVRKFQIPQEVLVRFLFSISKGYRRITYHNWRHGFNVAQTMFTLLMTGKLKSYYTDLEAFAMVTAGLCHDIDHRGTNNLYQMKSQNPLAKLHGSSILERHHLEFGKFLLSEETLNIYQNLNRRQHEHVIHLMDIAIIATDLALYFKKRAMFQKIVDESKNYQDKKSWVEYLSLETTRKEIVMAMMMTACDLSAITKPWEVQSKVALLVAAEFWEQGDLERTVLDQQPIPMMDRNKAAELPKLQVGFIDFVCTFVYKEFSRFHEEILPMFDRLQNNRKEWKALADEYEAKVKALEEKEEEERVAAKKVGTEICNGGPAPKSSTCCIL
Description: as §3, §4

PDE10A1 (cAMP) = PDE10A1 (cAMP) (Homo sapiens, UniProt Q9Y233); experiment: IMAP PDE activity assay (Scottish Biomedical); assay type: biochemical; details: * Extrapolated value
Chain of PDE10A1 (cAMP) (Q9Y233 267-1055): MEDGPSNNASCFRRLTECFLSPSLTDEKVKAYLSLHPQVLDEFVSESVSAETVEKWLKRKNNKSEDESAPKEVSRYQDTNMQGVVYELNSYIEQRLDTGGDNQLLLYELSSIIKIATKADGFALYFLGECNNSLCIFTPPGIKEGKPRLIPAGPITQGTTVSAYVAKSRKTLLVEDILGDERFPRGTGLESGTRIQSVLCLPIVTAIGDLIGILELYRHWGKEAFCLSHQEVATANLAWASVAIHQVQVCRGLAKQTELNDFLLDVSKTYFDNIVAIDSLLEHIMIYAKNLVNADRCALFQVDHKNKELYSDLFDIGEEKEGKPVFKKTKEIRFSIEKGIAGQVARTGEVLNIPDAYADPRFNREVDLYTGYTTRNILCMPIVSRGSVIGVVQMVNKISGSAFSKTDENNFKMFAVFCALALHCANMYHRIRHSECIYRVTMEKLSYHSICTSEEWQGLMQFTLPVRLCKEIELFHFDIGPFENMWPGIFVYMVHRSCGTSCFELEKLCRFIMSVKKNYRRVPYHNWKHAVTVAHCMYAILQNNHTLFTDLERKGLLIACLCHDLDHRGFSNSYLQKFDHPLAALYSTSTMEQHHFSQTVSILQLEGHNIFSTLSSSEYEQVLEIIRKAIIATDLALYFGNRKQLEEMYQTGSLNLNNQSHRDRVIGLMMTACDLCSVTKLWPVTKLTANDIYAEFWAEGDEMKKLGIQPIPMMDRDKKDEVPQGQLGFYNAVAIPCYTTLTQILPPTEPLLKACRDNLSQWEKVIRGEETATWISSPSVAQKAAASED
Description: as §3, §4

PDE8A1 = target: T3, PDE8A1 (Homo sapiens, UniProt O60658); experiment: IMAP PDE activity assay (Scottish Biomedical); assay type: biochemical; details: NI, no inhibition noted at concentrations tested (up to 10 µM at Cerep and up to 100 µM at Scottish Biomedical)
T3 construct: Scottish Biomedical (contract laboratory)
Description: as §3, §4

PDE1A3 (cAMP) = target: T4, PDE1A3 (cAMP) (Homo sapiens, UniProt P54750); experiment: IMAP PDE activity assay (Scottish Biomedical); assay type: biochemical; details: recombinant PDE1A3 (cAMP)
T4 construct: Scottish Biomedical (contract laboratory)
Description: as §3, §4

PDE7A1 = target: T5, PDE7A1 (Homo sapiens, UniProt Q13946); experiment: IMAP PDE activity assay (Scottish Biomedical); assay type: biochemical
T5 construct: Scottish Biomedical (contract laboratory)
T5 sequence (Q13946 whole entry, species assumed): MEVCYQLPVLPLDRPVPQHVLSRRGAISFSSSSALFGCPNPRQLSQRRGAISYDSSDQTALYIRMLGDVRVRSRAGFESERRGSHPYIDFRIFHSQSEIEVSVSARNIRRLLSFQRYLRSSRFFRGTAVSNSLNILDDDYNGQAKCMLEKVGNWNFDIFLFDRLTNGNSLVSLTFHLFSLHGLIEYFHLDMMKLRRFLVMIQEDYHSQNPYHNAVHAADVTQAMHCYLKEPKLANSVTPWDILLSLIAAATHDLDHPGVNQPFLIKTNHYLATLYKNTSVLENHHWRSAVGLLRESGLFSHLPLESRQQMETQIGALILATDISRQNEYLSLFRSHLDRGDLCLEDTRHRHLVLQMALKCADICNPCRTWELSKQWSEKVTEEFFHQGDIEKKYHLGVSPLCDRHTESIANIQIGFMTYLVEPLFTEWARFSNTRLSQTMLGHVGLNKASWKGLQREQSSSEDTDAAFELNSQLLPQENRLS
Description: as §3, §4

[3] = Age Week 4, 10 mg/kg p.o., BID, ANOVA
[4] = Age Week 4, 30 mg/kg p.o., BID, ANOVA
[5] = Age Week 12, 10 mg/kg p.o., BID
[6] = Age Week 12, 30 mg/kg p.o., BID
[7] = Age Week 6, 10 mg/kg p.o., BID, ANOVA
[8] = Age Week 6, 30 mg/kg p.o., BID, ANOVA
[9] = Age Week 8, 10 mg/kg p.o., BID, ANOVA
[10] = Age Week 8, 30 mg/kg p.o., BID, ANOVA
[11] = Age Week 12, 10 mg/kg p.o., BID, ANOVA
[12] = Age Week 12, 30 mg/kg p.o., BID, ANOVA

CN1C(=O)c2nc(Cc3ccc(C(F)(F)F)cc3)[nH]c2N2C1=N[C@H]1CCC[C@H]12 [SCH-51866, (+)-cis-5,6a,7,8,9,9a-hexahydro-2-[4-[trifluro-methyl]phenylmethyl]-5-methyl-cylopent[4,5]imidazo [2,1-b]purin-4(3H)one]
Grip strength, effect in words (R6/2 mice [1]; 30 mg/kg, 12 weeks of age, vs R6/2 vehicle group): improvement in grip strength; also recorded: positive effect in improving grip strength; also recorded: significantly improved over the R6/2 vehicle group | Grip Strength: p vs Vehicle-treated R6/2 mice (R6/2 mice [1]; [3]): ANOVA: p=0.612 | Grip Strength: p vs Vehicle-treated R6/2 mice (R6/2 mice [1]; [4]): ANOVA: p=0.612 | Grip Strength: p vs Vehicle-treated R6/2 mice (R6/2 mice [1]; [5]): p=0.860 | Grip Strength: direction of significant change vs Vehicle-treated R6/2 mice (R6/2 mice [1]; [6]): ▲ | Grip Strength: p vs Vehicle-treated R6/2 mice (R6/2 mice [1]; [6]): 0.006 | Open Field Average Velocity: p vs Vehicle-treated R6/2 mice (R6/2 mice [2]; [3]): ANOVA: p=0.461 | Open Field Center Distance: p vs Vehicle-treated R6/2 mice (R6/2 mice [2]; [3]): ANOVA: p=0.701 | Open Field Rearing Rate in Center: p vs Vehicle-treated R6/2 mice (R6/2 mice [2]; [3]): ANOVA: p=0.341 | Open Field Total Distance: p vs Vehicle-treated R6/2 mice (R6/2 mice [2]; [3]): ANOVA: p=0.792 | Open Field Total Rearing Frequency: p vs Vehicle-treated R6/2 mice (R6/2 mice [2]; [3]): ANOVA: p=0.542 | Open Field Average Velocity: p vs Vehicle-treated R6/2 mice (R6/2 mice [2]; [4]): ANOVA: p=0.461 | Open Field Center Distance: p vs Vehicle-treated R6/2 mice (R6/2 mice [2]; [4]): ANOVA: p=0.701 | Open Field Rearing Rate in Center: p vs Vehicle-treated R6/2 mice (R6/2 mice [2]; [4]): ANOVA: p=0.341 | Open Field Total Distance: p vs Vehicle-treated R6/2 mice (R6/2 mice [2]; [4]): ANOVA: p=0.792 | Open Field Total Rearing Frequency: p vs Vehicle-treated R6/2 mice (R6/2 mice [2]; [4]): ANOVA: p=0.542 | Open Field Average Velocity: p vs Vehicle-treated R6/2 mice (R6/2 mice [2]; [7]): ANOVA: p=0.686 | Open Field Center Distance: p vs Vehicle-treated R6/2 mice (R6/2 mice [2]; [7]): ANOVA: p=0.305 | Open Field Rearing Rate in Center: p vs Vehicle-treated R6/2 mice (R6/2 mice [2]; [7]): ANOVA: p=0.594 | Open Field Total Distance: p vs Vehicle-treated R6/2 mice (R6/2 mice [2]; [7]): ANOVA: p=0.101 | Open Field Total Rearing Frequency: p vs Vehicle-treated R6/2 mice (R6/2 mice [2]; [7]): ANOVA: p=0.639 | Open Field Average Velocity: p vs Vehicle-treated R6/2 mice (R6/2 mice [2]; [8]): ANOVA: p=0.686 | Open Field Center Distance: p vs Vehicle-treated R6/2 mice (R6/2 mice [2]; [8]): ANOVA: p=0.305 | Open Field Rearing Rate in Center: p vs Vehicle-treated R6/2 mice (R6/2 mice [2]; [8]): ANOVA: p=0.594 | Open Field Total Distance: p vs Vehicle-treated R6/2 mice (R6/2 mice [2]; [8]): ANOVA: p=0.101 | Open Field Total Rearing Frequency: p vs Vehicle-treated R6/2 mice (R6/2 mice [2]; [8]): ANOVA: p=0.639 | Open Field Average Velocity: p vs Vehicle-treated R6/2 mice (R6/2 mice [2]; [9]): ANOVA: p=0.138 | Open Field Center Distance: p vs Vehicle-treated R6/2 mice (R6/2 mice [2]; [9]): ANOVA: p=0.693 | Open Field Rearing Rate in Center: p vs Vehicle-treated R6/2 mice (R6/2 mice [2]; [9]): ANOVA: p=0.519 | Open Field Total Distance: p vs Vehicle-treated R6/2 mice (R6/2 mice [2]; [9]): ANOVA: p=0.333 | Open Field Total Rearing Frequency: p vs Vehicle-treated R6/2 mice (R6/2 mice [2]; [9]): ANOVA: p=0.395 | Open Field Average Velocity: p vs Vehicle-treated R6/2 mice (R6/2 mice [2]; [10]): ANOVA: p=0.138 | Open Field Center Distance: p vs Vehicle-treated R6/2 mice (R6/2 mice [2]; [10]): ANOVA: p=0.693 | Open Field Rearing Rate in Center: p vs Vehicle-treated R6/2 mice (R6/2 mice [2]; [10]): ANOVA: p=0.519 | Open Field Total Distance: p vs Vehicle-treated R6/2 mice (R6/2 mice [2]; [10]): ANOVA: p=0.333 | Open Field Total Rearing Frequency: p vs Vehicle-treated R6/2 mice (R6/2 mice [2]; [10]): ANOVA: p=0.395 | Open Field Center Distance: p vs Vehicle-treated R6/2 mice (R6/2 mice [2]; [5]): p=0.112 | Open Field Total Distance: p vs Vehicle-treated R6/2 mice (R6/2 mice [2]; [5]): p=0.454 | Open Field Average Velocity: p vs Vehicle-treated R6/2 mice (R6/2 mice [2]; [11]): ANOVA: p=0.197 | Open Field Rearing Rate in Center: p vs Vehicle-treated R6/2 mice (R6/2 mice [2]; [11]): ANOVA: p=0.423 | Open Field Total Rearing Frequency: p vs Vehicle-treated R6/2 mice (R6/2 mice [2]; [11]): ANOVA: p=0.703 | Open Field Center Distance: direction of significant change vs Vehicle-treated R6/2 mice (R6/2 mice [2]; [6]): ▼ | Open Field Center Distance: p vs Vehicle-treated R6/2 mice (R6/2 mice [2]; [6]): 0.012 | Open Field Total Distance: direction of significant change vs Vehicle-treated R6/2 mice (R6/2 mice [2]; [6]): ▼ | Open Field Total Distance: p vs Vehicle-treated R6/2 mice (R6/2 mice [2]; [6]): 0.016 | Open Field Average Velocity: p vs Vehicle-treated R6/2 mice (R6/2 mice [2]; [12]): ANOVA: p=0.197 | Open Field Rearing Rate in Center: p vs Vehicle-treated R6/2 mice (R6/2 mice [2]; [12]): ANOVA: p=0.423 | Open Field Total Rearing Frequency: p vs Vehicle-treated R6/2 mice (R6/2 mice [2]; [12]): ANOVA: p=0.703 | Open field total distance traveled, distance in center, total rear frequency, average velocity, effect in words (R6/2 mice [2]; chronic administration in R6/2 mice): no improvement | performance in open field evaluation, effect in words (R6/2 mice [2]; highest dose group, 12 weeks of age): modest but significant worsening of performance | IC50 (PDE2A3): 1320 nM | IC50 (PDE9A2): 51.3 µM | IC50 (PDE3 Cat): 17.3 µM | IC50 (PDE11A1 (cAMP)): 21.9 µM | IC50 (PDE4 Cat): > 100 µM | IC50 (PDE6AB): > 100 µM | IC50 (PDE10A1 (cAMP)): 16 µM | IC50 (PDE8A1): > 100 µM | IC50 (PDE1A3 (cAMP)): 70 nM | IC50 (PDE7A1): > 100 µM
